Here are results for 17 compounds from patent US20260297108A1, “NOVEL INHIBITORS OF PIKFYVE AND METHODS USING SAME” (priority 2023, published 2026).

Like-named read-outs stand apart in the source and are kept apart here.

The test system of data set [1] is IL-12 and IL-23 synthesis. To be noted: background; cited from earlier work.
Data set [2] addresses T1, PIKFYVE (Homo sapiens, UniProt Q9Y2I7). More on the design: T7 phage display fusion, or alternatively DNA tag for qPCR (general KINOMEscan description); purchased Eurofins. The note with it: background; cited from earlier work.
The subject of another data set is enveloped viruses. The note with it: background; cited from earlier work.
The test system of the next data set is Influenza A. Kind of data set: Influenza A, inhibition of CPE. The class given is cell-based, influenza A strain California/07/09 (H1N1) pdm09. To be noted: CC50 divided by EC50.
The subject of a further data set is Marburg. The class given is cell-based, Marburg virus (Angola strain).
In the next data set the test system is SARS-CoV2 (Delta). Put plainly: SARS-COV-2 IFA, inhibition of CPE (Delta strain B.1.617). It is filed as cell-based, SARS-COV-2 Delta strain B.1.617. The note with it: CC50 divided by EC50.
The next data set relates to SARS-CoV2. Kind of data set: SARS-COV-2 IFA, inhibition of CPE (strain USA-WA1/2020). The class given is cell-based. To be noted: CC50 divided by EC50.
Data set [3] is described as follows: in vitro. To be noted: dog, mdck.
The nature of data set [4]: in vitro. To be noted: monkey, vero cells.
A further data set has as its system MDCK cells. The note with it: dog.
For data set [5], the target named is T1, PIKFYVE. Put plainly: KINOMEscan Kinase Assay (PIKFYVE inhibitory activity).
[6] abbreviates: read-out: PIKfyve Activity (% inhibition).
[7] abbreviates: read-out: PIKfyve Activity (PIKfyve % inhibition).

T1 sequence (Q9Y2I7 whole entry, the tested form may be a part): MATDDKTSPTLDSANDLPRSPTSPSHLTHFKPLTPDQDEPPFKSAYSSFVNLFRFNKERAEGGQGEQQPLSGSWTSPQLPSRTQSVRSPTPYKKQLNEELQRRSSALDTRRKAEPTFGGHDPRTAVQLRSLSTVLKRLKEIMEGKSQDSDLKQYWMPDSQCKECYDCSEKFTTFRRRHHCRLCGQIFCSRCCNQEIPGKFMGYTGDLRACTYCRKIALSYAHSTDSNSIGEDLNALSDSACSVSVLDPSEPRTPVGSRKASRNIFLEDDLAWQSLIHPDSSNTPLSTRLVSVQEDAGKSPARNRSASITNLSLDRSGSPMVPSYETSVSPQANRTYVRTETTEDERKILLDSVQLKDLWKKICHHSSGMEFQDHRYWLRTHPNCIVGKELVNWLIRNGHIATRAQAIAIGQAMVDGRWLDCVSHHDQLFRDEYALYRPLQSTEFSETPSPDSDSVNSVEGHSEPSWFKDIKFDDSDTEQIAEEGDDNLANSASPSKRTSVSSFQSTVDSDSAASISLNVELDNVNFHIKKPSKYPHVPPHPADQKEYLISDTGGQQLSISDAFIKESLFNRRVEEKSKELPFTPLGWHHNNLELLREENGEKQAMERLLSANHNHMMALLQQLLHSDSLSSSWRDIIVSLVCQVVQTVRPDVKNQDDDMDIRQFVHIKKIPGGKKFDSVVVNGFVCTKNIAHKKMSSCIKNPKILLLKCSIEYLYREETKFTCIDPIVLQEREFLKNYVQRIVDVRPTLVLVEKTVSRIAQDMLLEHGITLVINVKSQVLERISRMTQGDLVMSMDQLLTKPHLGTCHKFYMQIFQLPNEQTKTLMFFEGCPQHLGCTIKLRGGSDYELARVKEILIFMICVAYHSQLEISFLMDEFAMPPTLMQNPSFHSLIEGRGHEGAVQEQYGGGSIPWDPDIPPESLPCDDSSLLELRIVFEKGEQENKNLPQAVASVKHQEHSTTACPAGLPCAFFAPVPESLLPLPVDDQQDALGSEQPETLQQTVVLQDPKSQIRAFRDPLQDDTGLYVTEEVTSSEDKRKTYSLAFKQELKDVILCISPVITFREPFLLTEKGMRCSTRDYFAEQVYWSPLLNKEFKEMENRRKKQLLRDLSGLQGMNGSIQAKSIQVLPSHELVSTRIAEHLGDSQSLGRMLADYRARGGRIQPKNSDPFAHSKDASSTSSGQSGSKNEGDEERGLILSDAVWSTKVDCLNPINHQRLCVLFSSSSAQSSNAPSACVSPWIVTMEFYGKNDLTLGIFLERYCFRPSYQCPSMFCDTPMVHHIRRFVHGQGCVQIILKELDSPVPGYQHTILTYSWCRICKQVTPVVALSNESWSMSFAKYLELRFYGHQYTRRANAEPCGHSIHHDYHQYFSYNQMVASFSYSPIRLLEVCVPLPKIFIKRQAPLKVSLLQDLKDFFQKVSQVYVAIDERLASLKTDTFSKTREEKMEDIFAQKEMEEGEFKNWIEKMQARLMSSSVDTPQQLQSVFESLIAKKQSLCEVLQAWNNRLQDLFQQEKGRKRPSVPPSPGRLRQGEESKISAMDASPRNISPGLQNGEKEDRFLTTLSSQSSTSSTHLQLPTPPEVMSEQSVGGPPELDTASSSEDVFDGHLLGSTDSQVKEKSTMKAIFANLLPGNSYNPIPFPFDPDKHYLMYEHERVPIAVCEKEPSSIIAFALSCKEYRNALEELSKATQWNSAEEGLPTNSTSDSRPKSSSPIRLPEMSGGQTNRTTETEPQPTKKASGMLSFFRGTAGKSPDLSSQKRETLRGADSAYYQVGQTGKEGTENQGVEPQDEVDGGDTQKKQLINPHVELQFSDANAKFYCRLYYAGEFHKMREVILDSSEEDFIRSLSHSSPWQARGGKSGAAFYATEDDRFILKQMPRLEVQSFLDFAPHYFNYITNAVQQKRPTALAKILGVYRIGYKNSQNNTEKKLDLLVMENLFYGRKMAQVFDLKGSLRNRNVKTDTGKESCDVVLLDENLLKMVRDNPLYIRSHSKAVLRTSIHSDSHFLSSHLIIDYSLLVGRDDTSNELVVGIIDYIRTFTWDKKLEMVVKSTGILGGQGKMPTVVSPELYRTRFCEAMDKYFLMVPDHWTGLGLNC

For `Cc1cccc(/C=N/Nc2cc(N3CCOCC3)nc(OCCc3ccccn3)n2)c1` [Apilimod], the “inhibitor of IL-12 and IL-23 synthesis” value in data set [1] is “inhibitor of IL-12 and IL-23 synthesis”. At PIKFYVE [2], the PIKFYVE inhibitory activity entry was “potent PIKFYVE inhibitory activity”. In addition, the “prevention of infection by enveloped viruses” value in the data set on enveloped viruses was “prevent infection by some of these enveloped viruses”.

Take `Cc1cccc(-c2ccn(-c3nc(N4CCOCC4)c4sc(CN5CCN(S(C)(=O)=O)CC5)cc4n3)n2)c1` [Ex. 2, 4-(6-((4-(methylsulfonyl)piperazin-1-yl)methyl)-2-(3-(m-tolyl)-1H-pyrazol-1-yl)thieno[3,2-d]pyrimidin-4-yl)morpholine]: the “Selectivity Index” value with Influenza A was over 150; in the data set on Marburg, over 15000; with SARS-CoV2 (Delta) it was over 1000; in the data set on SARS-CoV2 it was over 150. In addition, the CC50 is over 3 µM in “in vitro [3]” and over 150 µM with MDCK cells. In the data set “in vitro [4]”, this compound showed a CC50 at 24 h of over 3 µM.

Take `Cc1cccc(-c2ccn(-c3cc(N4CCOCC4)c4nc(C(=O)N5CCN(S(C)(=O)=O)CC5)n(C)c4n3)n2)c1` [Ex. 304]: the inhibition at 0.001 µM at PIKFYVE [5] (setting [6]) came out at 46%.

Turning to `Cc1cccc(-c2ccn(-c3cc(N4CCOCC4)c4nc(C(=O)NC5CC5)[nH]c4n3)n2)c1` [Ex. 305], the inhibition at 0.001 µM on PIKFYVE [5] (setting [7]) fell in the range of 52 to 100%.

In the case of `Cc1cccc(-c2ccn(-c3nc4[nH]c(C(=O)N5CCC(C(C)(C)O)CC5)nc4c(N4CCOCC4)c3F)n2)c1` [Ex. 306], the inhibition at 0.003 µM on PIKFYVE [5] (setting [6]) is 9%.

As to `Cc1cccc(-c2ccn(-c3nc4[nH]c(C(=O)NC5CC5)nc4c(N4CCOCC4)c3F)n2)c1` [Ex. 307], the inhibition at 0.003 µM at PIKFYVE [5] (setting [6]) was 0%.

Regarding `Cc1cccc(-c2ccn(-c3cc(N4CCOCC4)c4nc(C(=O)NC5COC5)n(C)c4n3)n2)c1` [Ex. 308], the inhibition at 0.001 µM at PIKFYVE [5] (setting [7]) lay in the range of 52 to 100%.

Take `Cc1cccc(-c2ccn(-c3cc(N4CCOCC4)c4nc(C(=O)NC5CC5)n(C)c4n3)n2)c1` [Ex. 309]: the inhibition at 0.001 µM on PIKFYVE [5] (setting [7]) lay within 52 to 100%.

Consider `Cc1cccc(-c2ccn(-c3nc4[nH]c(C(=O)NC5COC5)nc4c(N4CCOCC4)c3F)n2)c1` [Ex. 310], for which, at PIKFYVE [5] (setting [6]), the inhibition at 0.003 µM stood at 0%.

As for `Cc1cccc(-c2ccn(-c3nc(N4CCOCC4)c4sc(CO)cc4n3)n2)c1` [Ex. 311], the inhibition at 0.001 µM on PIKFYVE [5] (setting [7]) was 52 to 100%.

For the compound `Cc1cccc(-c2ccn(-c3nc4[nH]c(C(=O)N5CCC(N6CCC6)C(F)C5)nc4c(N4CCOCC4)c3F)n2)c1` (stereo not shown) [Ex. 312], the inhibition at 0.003 µM on PIKFYVE [5] (setting [6]) turned out to be 10%.

Consider `Cc1cccc(-c2ccn(-c3cc(N4CCOCC4)c4sc(CO)cc4n3)n2)c1` [Ex. 313], for which the inhibition at 0.001 µM at PIKFYVE [5] (setting [7]) was 52 to 100%.

Turning to `Cc1cccc(-c2ccn(-c3nc(N4CCOCC4)c4nc(CO)[nH]c4n3)n2)c1` [Ex. 314], the inhibition at 0.001 µM on PIKFYVE [5] (setting [6]) was determined as 40%.

On to `Cc1cccc(-c2ccn(-c3nc(N4CCOCC4)c4nc(CO)n(C)c4n3)n2)c1` [Ex. 315], for which, on PIKFYVE [5] (setting [6]), the inhibition at 0.001 µM came to 47%.

In the case of `Cc1cccc(-c2ccn(-c3cc(N4CCOCC4)c4nc(COCc5ccccc5)[nH]c4n3)n2)c1` [Ex. 316], the inhibition at 0.001 µM at PIKFYVE [5] (setting [7]) fell in the range of 52 to 100%.

As to `Cc1cccc(-c2ccn(-c3cc(N4CCOCC4)c4nc(CO)[nH]c4n3)n2)c1` [Ex. 317], the inhibition at 0.001 µM on PIKFYVE [5] (setting [7]) fell in the range of 52 to 100%.

As for `NC(=O)c1ncn([C@@H]2O[C@H](CO)[C@@H](O)[C@H]2O)n1` [ribavirin, reference compound], the CC50 in the data set with MDCK cells is over 1000 µM.
